We go through 20 compounds from US11407736B2 (priority 2019, dated 2022).

In one assay the target is RIPK1 (Homo sapiens (Human), UniProt Q13546). Put plainly: RIPK1 ADP-Glo biochemical kinase assay. As for the experimental part: The final reaction volume was 5.0ul.
Adding 5 μl of ADP-Glo™ terminated the reaction.
(In general: ADP-Glo turns the ADP formed in a reaction into a luminescent signal.)

The subject of another assay is L929 cells. As to the kind of experiment: L929 cell necroptosis assay (TNFa + zVAD, CellTiter-Glo). It counts as cell-based, murine. To be noted: Mus musculus, L929, L929 cells, TNFa + zVAD; read-out: L929-CTG-recovery, L929, TNFa + zVAD (IC50). In short, it runs like this: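 Murine L929 cells, plated 18 h beforehand at 10K cells/well in RPMI 1640 with 10% FBS, were switched to medium containing 40 uM zVAD-fmk and given compound from 4-fold serial dilutions. Viability after 18 h of TNFa stimulation at 37° C was read by CellTiter-Glo luminescence.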
A general note: In ATP-based viability assays light output follows the ATP content of the culture.

In the next assay the test system is U937 cells. As to the kind of experiment: U937 cell necroptosis assay (TNFa + zVAD, CellTiter-Glo). It counts as cell-based, human. To be noted: Homo sapiens, U-937, U937 cells, TNFa + zVAD; read-out: U937 Zvad TNF CTG Recovery, U937, TNFa + zVAD (IC50). Summed up: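 Human U937 and murine L929 cells in RPMI 1640/10% FBS were pre-incubated 1 h at 37 °C with serially diluted compound plus zVAD-fmk (U937 plated with 60 uM, L929 medium with 40 uM), then stimulated with 2 ng/mL TNFa (final). Viability read by CellTiter-Glo luminescence after 18 h.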

The mark [1] stands for this setting: read-out: RIPK1 ADP-Glo Kinase (IC50).

Read-outs that look alike come from different tables or passages of the source.

Sequence of RIPK1 (Q13546 whole entry, species assumed): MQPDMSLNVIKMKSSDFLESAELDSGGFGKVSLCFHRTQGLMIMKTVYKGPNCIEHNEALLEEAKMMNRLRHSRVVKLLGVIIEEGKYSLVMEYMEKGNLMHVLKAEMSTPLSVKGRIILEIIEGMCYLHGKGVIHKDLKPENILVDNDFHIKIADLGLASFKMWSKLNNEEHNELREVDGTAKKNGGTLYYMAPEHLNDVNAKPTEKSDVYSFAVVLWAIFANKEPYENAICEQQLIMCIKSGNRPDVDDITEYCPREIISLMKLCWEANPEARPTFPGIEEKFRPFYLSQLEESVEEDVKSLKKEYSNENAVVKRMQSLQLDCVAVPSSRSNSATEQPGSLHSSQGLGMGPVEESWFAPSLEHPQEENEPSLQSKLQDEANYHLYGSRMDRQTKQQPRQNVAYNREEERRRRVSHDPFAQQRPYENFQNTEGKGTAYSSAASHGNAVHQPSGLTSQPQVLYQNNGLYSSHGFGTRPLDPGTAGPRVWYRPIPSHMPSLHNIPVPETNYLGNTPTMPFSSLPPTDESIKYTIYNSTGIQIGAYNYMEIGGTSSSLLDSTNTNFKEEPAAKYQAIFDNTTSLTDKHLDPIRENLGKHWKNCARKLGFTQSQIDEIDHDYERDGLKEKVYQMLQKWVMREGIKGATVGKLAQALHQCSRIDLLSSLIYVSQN

The IC50 is the concentration that gives 50% inhibition. Consider `CN1C(=O)[C@@H](NC(=O)c2n[nH]c(Cc3ccccc3)n2)COc2ccc(C#C[C@@]3(O)CO[C@@H]4[C@@H](O)CO[C@@H]43)cc21` [Compound I-75, 5-benzyl-N—((S)-7-(((3R,3aS,6S,6aR)-3,6-dihydroxyhexahydrofuro[3,2-b]furan-3-yl)ethynyl)-5-methyl-4-oxo-2,3,4,5-tetrahydrobenzo[b][1,4]oxazepin-3-yl)-1H-1,2,4-triazole-3-carboxamide], for which the IC50 on RIPK1 (setting [1]) amounted to 54.6 nM; in the assay on L929 cells, 1.4 nM; in the assay with U937 cells, 8.3 nM.

Turning to `CC(C)CCc1ccc2c(c1)N(C)C(=O)[C@@H](NC(=O)c1cc(Oc3ccccc3)ccn1)CO2` [Compound I-108, (S)—N-(7-isopentyl-5-methyl-4-oxo-2,3,4,5-tetrahydrobenzo[b][1,4]oxazepin-3-yl)-4-phenoxypicolinamide], the results for the IC50 on RIPK1 (setting [1]), in the assay with L929 cells and in the assay on U937 cells were 314 nM, 2310 nM and 8.8 nM, respectively.

Consider `CN1CCC(O)(C#Cc2ccc3c(c2)N(C)C(=O)[C@@H](NC(=O)c2cc(Oc4ccc(F)cc4)ccn2)CO3)CC1` [Compound I-135, (S)-4-(4-fluorophenoxy)-N-(7-((4-hydroxy-1-methylpiperidin-4-yl)ethynyl)-5-methyl-4-oxo-2,3,4,5-tetrahydrobenzo[b][1,4]oxazepin-3-yl)picolinamide], for which the IC50 at RIPK1 (setting [1]) was 111 nM; with L929 cells, 2630 nM; in the assay with U937 cells, 224 nM.

Turning to `CC(=O)O[C@@H](C(=O)O)[C@@H](OC(C)=O)C(=O)OCC(C)(C)C#Cc1ccc2c(c1)N(C)C(=O)[C@@H](NC(=O)c1cc(Oc3ccccc3)ccn1)CO2` [Compound I-145, (2R,3R)-2,3-diacetoxy-4-((2,2-dimethyl-4-((S)-5-methyl-4-oxo-3-(4-phenoxypicolinamido)-2,3,4,5-tetrahydrobenzo[b][1,4]oxazepin-7-yl)but-3-yn-1-yl)oxy)-4-oxobutanoic acid], the IC50 on RIPK1 (setting [1]) is 27.5 nM; with L929 cells, 3050 nM; in the assay with U937 cells it was 8.6 nM.

For the compound `CN1C(=O)[C@@H](NC(=O)c2ncn(Cc3ccccc3)n2)COc2ccc(C#CC3(O)COC3)cc21` [Compound I-58, (S)-1-benzyl-N-(7-((3-hydroxyoxetan-3-yl)ethynyl)-5-methyl-4-oxo-2,3,4,5-tetrahydrobenzo[b][1,4]oxazepin-3-yl)-1H-1,2,4-triazole-3-carboxamide], the IC50 at RIPK1 (setting [1]) was 11 nM; with L929 cells, 0.2 nM; in the assay on U937 cells, 0.8 nM.

On to `CN1C(=O)[C@@H](NC(=O)c2cc(Oc3ccccc3)ccn2)COc2ccc(CN3CCC4(CCOCC4)CC3)cc21` [Compound I-149, (S)—N-(7-((3-oxa-9-azaspiro[5.5]undecan-9-yl)methyl)-5-methyl-4-oxo-2,3,4,5-tetrahydrobenzo[b][1,4]oxazepin-3-yl)-4-phenoxypicolinamide], for which the IC50 against RIPK1 amounted to 39.6 nM; in the assay on L929 cells it was 11600 nM; in the assay on U937 cells, 30 nM.

For the compound `CN1C(=O)[C@@H](NC(=O)n2cc(Cc3ccc(F)cc3)cn2)COc2ccc(C#CC3(O)CCOCC3)cc21` [Compound I-175, (S)-4-(4-fluorobenzyl)-N-(7-((4-hydroxytetrahydro-2H-pyran-4-yl)ethynyl)-5-methyl-4-oxo-2,3,4,5-tetrahydrobenzo[b][1,4]oxazepin-3-yl)-1H-pyrazole-1-carboxamide], the IC50 at RIPK1 (setting [1]) came out at 27.8 nM; with L929 cells, 107 nM; with U937 cells, 9 nM.

`CN1C(=O)[C@@H](NC(=O)c2n[nH]c(Cc3ccccc3)n2)COc2ccc(C#Cc3ccc4c(c3)CNCC4)cc21` [Compound I-88, (S)-5-benzyl-N-(5-methyl-4-oxo-7-((1,2,3,4-tetrahydroisoquinolin-7-yl)ethynyl)-2,3,4,5-tetrahydrobenzo[b][1,4]oxazepin-3-yl)-1H-1,2,4-triazole-3-carboxamide]: the values for the IC50 on RIPK1 (setting [1]), with L929 cells and in the assay with U937 cells were 73.8 nM, 0.0976 nM and 0.7 nM, respectively.

For the compound `CN(C)CC#Cc1ccc2c(c1)N(C)C(=O)[C@@H](NC(=O)c1cc(Oc3ccccc3)ccn1)CO2` [II-36, (S)—N-(7-(3-(dimethylamino)prop-1-yn-1-yl)-5-methyl-4-oxo-2,3,4,5-tetrahydrobenzo[b][1,4]oxazepin-3-yl)-4-phenoxypicolinamide], the IC50 came out at 38.9 nM at RIPK1 (setting [1]), 132 nM in the assay on L929 cells and 1.6 nM in the assay on U937 cells.

With `CN1C(=O)[C@@H](NC(=O)n2cc(Cc3ccc(F)cc3)cn2)COc2ccc(C#CC3(O)COC3)cc21` [Compound I-222, (S)-4-(4-Fluorobenzyl)-N-(7-((3-hydroxyoxetan-3-yl)ethynyl)-5-methyl-4-oxo-2,3,4,5-tetrahydrobenzo[b][1,4]oxazepin-3-yl)-1H-pyrazole-1-carboxamide], the IC50 was 16.6 nM on RIPK1 (setting [1]), 62.5 nM with L929 cells and 1.4 nM with U937 cells.

As to `CN1C(=O)[C@@H](NC(=O)c2ncn(Cc3ccccc3)n2)COc2ccc(CN3CCn4ncnc4C3)cc21` [Compound I-25, (S)-1-benzyl-N-(7-((5,6-dihydro-[1,2,4]triazolo[1,5-a]pyrazin-7(8H)-yl)methyl)-5-methyl-4-oxo-2,3,4,5-tetrahydrobenzo[b][1,4]oxazepin-3-yl)-1H-1,2,4-triazole-3-carboxamide], the results for the IC50 at RIPK1 (setting [1]), in the assay on L929 cells and in the assay on U937 cells were 51 nM, 490 nM and 2.7 nM, respectively.

As to `CN1C(=O)[C@@H](NC(=O)n2cc(Cc3ccc(F)cc3)cn2)COc2ccc(C#CC3(O)CC4(CCC4)C3)cc21` [Compound I-224, (S)-4-(4-Fluorobenzyl)-N-(7-((2-hydroxyspiro[3.3]heptan-2-yl)ethynyl)-5-methyl-4-oxo-2,3,4,5-tetrahydrobenzo[b][1,4]oxazepin-3-yl)-1H-pyrazole-1-carboxamide], the figures for the half-inhibitory concentration (IC50) at RIPK1 (setting [1]), with L929 cells and with U937 cells were 312 nM, 220 nM and 1.5 nM, respectively.

`CN1C(=O)[C@@H](NC(=O)c2n[nH]c(Cc3ccccc3)n2)COc2ccc(/C=C/C(=O)NC3CC3)cc21` [Compound I-23, (S,E)-5-benzyl-N-(7-(3-(cyclopropylamino)-3-oxoprop-1-en-1-yl)-5-methyl-4-oxo-2,3,4,5-tetrahydrobenzo[b][1,4]oxazepin-3-yl)-1H-1,2,4-triazole-3-carboxamide]: the IC50 at RIPK1 (setting [1]) stood at 35.2 nM; in the assay on L929 cells, 14500 nM; in the assay on U937 cells it was 6.7 nM.

Regarding `CN1C(=O)[C@@H](NC(=O)c2ncn(Cc3ccccc3)n2)COc2ccc(CCC(=O)NC3CC3)cc21` [Compound I-26, (S)-1-benzyl-N-(7-(3-(cyclopropylamino)-3-oxopropyl)-5-methyl-4-oxo-2,3,4,5-tetrahydrobenzo[b][1,4]oxazepin-3-yl)-1H-1,2,4-triazole-3-carboxamide], the IC50 came out at 65.6 nM on RIPK1 (setting [1]), 613 nM with L929 cells and 4.4 nM in the assay with U937 cells.

`CN1C(=O)[C@@H](NC(=O)c2cc(Oc3cccc(F)c3)ccn2)COc2ccc(C#CC3(O)COC3)cc21` [Compound I-115, (S)-4-(3-fluorophenoxy)-N-(7-((3-hydroxyoxetan-3-yl)ethynyl)-5-methyl-4-oxo-2,3,4,5-tetrahydrobenzo[b][1,4]oxazepin-3-yl)picolinamide]: the figures for the IC50 at RIPK1 (setting [1]), in the assay with L929 cells and in the assay with U937 cells were 24 nM, 49.1 nM and 0.8 nM, respectively.

On to `CN1C(=O)[C@@H](NC(=O)c2cc(Oc3ccccc3)ccn2)COc2ccc(C#CC3(O)CCCC3)cc21` [Compound I-98, (S)—N-(7-((1-hydroxycyclopentyl)ethynyl)-5-methyl-4-oxo-2,3,4,5-tetrahydrobenzo[b][1,4]oxazepin-3-yl)-4-phenoxypicolinamide], for which the IC50 at RIPK1 is 29.6 nM; with L929 cells, 36.8 nM; with U937 cells it was 1.6 nM.

Turning to `CN1C(=O)[C@@H](NC(=O)c2cc(Oc3ccccc3)ccn2)COc2ccc(C#CC(C)(C)CO)cc21` [Compound I-109, (S)—N-(7-(4-hydroxy-3,3-dimethylbut-1-yn-1-yl)-5-methyl-4-oxo-2,3,4,5-tetrahydrobenzo[b][1,4]oxazepin-3-yl)-4-phenoxypicolinamide], the IC50 on RIPK1 was determined as 32.1 nM; with L929 cells, 24.3 nM; with U937 cells, 0.4 nM.

`CN1C(=O)[C@@H](NC(=O)n2cc(Cc3ccccc3)cn2)COc2ccc(C#CC3(O)CCC3)cc21` [Compound I-219, (S)-4-Benzyl-N-(7-((1-hydroxycyclobutyl)ethynyl)-5-methyl-4-oxo-2,3,4,5-tetrahydrobenzo[b][1,4]oxazepin-3-yl)-1H-pyrazole-1-carboxamide]: the figures for the IC50 on RIPK1 (setting [1]), in the assay on L929 cells and with U937 cells were 28.4 nM, 23.6 nM and 0.6 nM, respectively.

Turning to `CN1C(=O)[C@@H](NC(=O)c2cc(Oc3ccccc3)ccn2)COc2ccc(C#CC3(O)CCS(=O)(=O)CC3)cc21` [Compound I-207, (S)—N-(7-((4-Hydroxy-1,1-dioxidotetrahydro-2H-thiopyran-4-yl)ethynyl)-5-methyl-4-oxo-2,3,4,5-tetrahydrobenzo[b][1,4]oxazepin-3-yl)-4-phenoxypicolinamide], the results for the IC50 at RIPK1 (setting [1]), with L929 cells and with U937 cells were 27.9 nM, 116 nM and 0.5 nM, respectively.

Take `CN1C(=O)[C@@H](NC(=O)c2cc(Oc3ccccc3)ccn2)COc2ccc(C#CC3(O)C[S+]([O-])C3)cc21` (stereo partly drawn) [Compound I-208, (S)—N-(7-((3-Hydroxy-1-oxidothietan-3-yl)ethynyl)-5-methyl-4-oxo-2,3,4,5-tetrahydrobenzo[b][1,4]oxazepin-3-yl)-4-phenoxypicolinamide]: the IC50 came to 17.2 nM on RIPK1 (setting [1]), 97.5 nM in the assay with L929 cells and 0.6 nM with U937 cells.
